Results as given in patent US20250268844A1, “ANTICANCER AGENTS BASED ON CYCLOPENTENONES” (UNIVERSITY OF CRETE, priority 2022, published 2025).
Entries after “also recorded” stand apart in the source; their conditions may differ.

Legend:
[1] = test system: 2780CP, a cis-platin-resistant derivative of A2780; test: MTT conversion assay, 2780CP; format: cell-based, human
Method: (§1) In particular, Enone-1 and Enone-2 were tested for cytotoxic activity in 17 cell lines representing a broad spectrum of human tumors. They include human colorectal carcinoma (Caco2, RKO, HCT15, HT29), liver (HepG2), lung (A549), ovarian carcinoma (A2780, 2780CP, AGE60, SKOV3), anaplastic large cell lymphoma (Mac1 and Mac2a), breast carcinoma (MDA-MB-231), cervical (HeLa), bladder cancer (VM-CUB-1), melanoma (BRO), and multiple myeloma (MR20).
(§2) Each assay was performed in triplicate and repeated in 2-3 independent experiments. Specifically, to measure cell survival, 20 μl of 10 mg/ml MTT (3-([…])-2,5-diphenyl tetrazolium bromide; Sigma) was added to each well and the plates were incubated at 37° C. in 5% CO2 for 3 hours. The supernatant was removed and the formed crystals were dissolved in 200 μl dimethyl sulphoxide. The plates were then analysed at 450 nm on a plate reader. Growth inhibition (reduction in survival) was calculated by expressing the differences in optical densities between treatment wells and control wells as a percentage of the control.
Resistance to platinum-based chemotherapy is a major problem in oncology that impacts therapeutic options and limits patient survival. This is relevant to several types of malignancy, including ovarian cancer where platinum resistance frequently occurs. As Enone-1 and 2 show efficacy in reducing survival of A2780 ovarian carcinoma cells, the drugs were also tested in 2780CP, a cis-platin-resistant derivative of A2780 [13].

[2] = test system: SKOV3 ovarian carcinoma cells; test: MTT conversion assay, SKOV3; format: cell-based, human; conditions: Homo sapiens, SK-OV-3, 48 hrs treatment
Method: as §1, §2

[3] = test system: AGE60 ovarian carcinoma cells; test: MTT conversion assay, AGE60; format: cell-based, human; conditions: Homo sapiens, Ovarian carcinoma cell, 48 hrs treatment
Method: as §1, §2

[4] = test system: Caco-2 colorectal carcinoma cells; test: MTT conversion assay, Caco-2; format: cell-based; conditions: Homo sapiens, Caco-2, colon, 48 hrs treatment
Method: as §1, §2

[5] = test system: MDA-MB-231 breast carcinoma cells; test: MTT conversion assay, MDA-MB-231; format: cell-based, human; conditions: Homo sapiens, 48 hrs treatment
Method: as §1, §2

[6] = test system: Mac1 anaplastic large cell lymphoma cells; test: MTT conversion assay, Mac1; format: cell-based; conditions: Homo sapiens, Mac1, ALCL, 48 hrs treatment
Method: as §1, §2

[7] = test system: Mac2a anaplastic large cell lymphoma cells; test: MTT conversion assay, Mac2a; format: cell-based; conditions: Homo sapiens, ALCL, 48 hrs treatment
Method: as §1, §2

BRO melanoma cells = test: MTT conversion assay, BRO; format: cell-based, human; conditions: Homo sapiens, 48 hrs treatment
Method: as §1, §2

[8] = test system: A2780 ovarian cancer cells; test: PrestoBlue cell viability assay; format: cell-based, human; conditions: Homo sapiens, 72 hrs treatment, n=3 experiments
Method: The effects of Enone-1 and Enone-2 on cancer cells were confirmed using a second methodology, namely the PrestoBlue assay (PrestoBlue™ Cell Viability Reagent, Thermo Fisher, Catalog number: A13261), a cell permeable resazurin-based solution that functions as a cell viability indicator. A2780 ovarian cancer cells were plated as described above for the MTT assays and Enone drugs were added at increasing concentrations as indicated in FIG. 2. Cell viability was determined 72 hrs later following the addition of PrestoBlue, according to the manufacturer's instructions (Thermo Fisher).

[9] = test system: A2780 ovarian carcinoma cells; test: Cell cycle analysis by propidium iodide flow cytometry; format: cell-based, human; conditions: 2.5 μM or 5 μM for 24 hours
Method: The effect of Enone-2 on cell cycle progression was tested to determine if it causes cell cycle arrest, in addition to inducing cell death. To this end, A2780 ovarian carcinoma cells were treated with 2.5 μM or 5 μM Enone-2 for 24 hours, cells were detached, fixed in 1% Neutral Buffered Formalin and stained with 5 μg/ml propidium iodide. Cell suspensions were next analyzed for fluorescence intensities (DNA content) by quantitative flow cytometry.

CDC6 = CDC6 protein (immunoblot) and RNA (RT-qPCR) levels in A2780 cells; format: cell-based, human; conditions: 2.5 μM for 6 or 14 hours
Method: (§3) FIG. 4. Effects of Enone-2 on cell cycle and on the expression levels of replication licensing factors (RLF). (A) Representative cell cycle profiles showing progressive accumulation of A2780 ovarian carcinoma cells in the G2/M phase of the cell cycle following 24 hour treatment with 2.5 or 5 μM Enone-2. Quantification of results is shown in the form of pie charts on the right. PI: propidium iodide. (B) & (C) A2780 cells were treated with 2.5 μM Enone-2 for 6 or 14 hours and analyzed for CDC6 protein levels by immunoblot (B), or RNA levels by reverse transcription qPCR (C). The RNA levels of the RLF CDT1 were also measured by qPCR (C). ***P<0.001; **P<0.01.
(§4) Replication licensing factors (RLF) such as CDC6, MCM2-MCM7, ORC and CDT1 form origins of DNA replication in the G1 phase of the cell cycle and initiate DNA replication during the S phase. CDC6 is also involved in S-M checkpoint mechanisms that ensure that the entire genome is replicated just once per cell division. Cancer cells frequently display deregulated expression of RLFs; for example, CDC6 is over-expressed in colorectal and ovarian carcinoma and is associated with poor patient prognosis. […] Because of these characteristics, RLFs are considered as novel targets for anti-cancer therapy. […]

CDT1 = CDT1 RNA levels (qPCR) in A2780 cells; format: cell-based, human; conditions: 2.5 μM for 6 or 14 hours
Method: as §3, §4

[10] = test system: A2780 ovarian carcinoma cells; test: Gene expression profiling (RNAseq) of A2780 cells; format: cell-based, human
Excerpt: FIG. 7: Schematic representation of KEGG p53 pathway-related genes and their cellular roles.
Activation of p53 occurs in response to DNA damage (so called “DNA damage response”, DDR) or ribosomal stress (RS) and conveys signals that arrest cell cycle and induce cell death.
This group entailed the following gene transcripts: ZFAND2A; KCTD10; MDM2; PLK2; DDIT3; DNAJB9; PSMD6; RYBP; PSMD10; SPSB3; PSMB8; PELI1; RNF103; DNAJB2; UBE2H; ATXN3; PSEN1; RCHY1; UBR1; ANAPC16; JKAMP; DDA1; PSMA6; TMUB2; TRIM72; SPOPL; UBE2J1; ARIH1; NPLOC4; CDC26; USP19; UFD1; TNFAIP1; PSMB6; DERL1; UBE2V2; SELENOS; PSMA1; UBE2.

What does the source list for `C[C@@]1(O)C=CC(=O)[C@H]1c1ccc(F)c2ccccc12` (stereo in doubt) [Enone-2, 5-(4-fluoronaphthalen-1-yl)-4-hydroxy-4-methylcyclopent-2-en-1-one]?
IC50 ([1]; Homo sapiens, A2780, 2780CP, ovarian, cis-platin-resistant, 48 hrs treatment, MTT): 0.7 µM; sensitivity of 2780CP cells compared with cis-platin-sensitive A2780 cells ([1]; MTT conversion assays): nearly as sensitive; also recorded: remain sensitive; IC50 [2]: 0.3 µM; IC50 [3]: 1.2 µM; IC50 [4]: 1.8 µM; IC50 [5]: 2.5 µM; IC50 [6]: 1.8 µM; IC50 [7]: 2.3 µM; IC50 (BRO melanoma cells): 3.8 µM; IC50 [8]: 0.12 µM; cell cycle progression (DNA content) [9]: accumulation of cells in the G2/M phase of the cell cycle in a concentration dependent manner; CDC6 RNA and protein levels (CDC6): reduce the key RLF CDC6 in a time-dependent manner at both RNA and protein levels; CDT1 RNA levels (CDT1): reduce CDT1 RNA levels; transcripts of proteasome-mediated ubiquitin-dependent protein catabolic process ([10]; 2.5 μM for 6 hours, bioinformatic analysis): enrichment of up-regulated transcripts; p53 pathway activation (gene expression profiling) ([10]; 2.5 μM for 6 hrs or 14 hrs): activation of the p53 pathway
